In patent US20250122182A1 (Isosterix, Inc., priority 2023, published 2025):

Target: Recombinant KAT6A/MOZ (488-778) protein (Homo sapiens (Human), UniProt Q92794)
Test: KAT6A AlphaLISA Inhibition Screening Assay
Assay type: biochemical
Details: for inhibition at 1 µM: read-out: Average Kat6A % inhibition @ 1 μM, 1 μM test compound; for inhibition at 10 µM: read-out: Average Kat6A % inhibition @ 10 μM, 10 μM test compound
Experimental: The Kat6a inhibitory activity of test compounds was determined using an Alpha Screen-based detection method. The assay reactions were conducted in a volume of 10 μL in Alpha Plate, White 384 well plate (cat #6008280, Perkin Elmer). The enzymatic reactions were performed in assay buffer pH 8.0 (50 mM Tris-HCl, 0.1 mM EDTA, 0.01% Tween-20, 1 mM Dithiothreitol, 0.1% BSA (fatty acid free) and 330 nM TSA (Trichostatin A)). 10 μL reaction volume consisting of 25 nM of Recombinant KAT6A/MOZ (488-778) protein (Active motif, Catalog #81223), 400 nM Acetyl coenzyme A (Catalog #A2056, Sigma), 200 nM of Histone H3 peptide [(amino acids 1-21), biotin-labeled (BPS Biosciences, Catalog #52011)]. Test compounds were screened at different doses starting with 10 μM, 3 fold dilution and 10 point Dose response curve. Enzyme and compounds solution were pre-incubated in assay plate for 60 or 10 min at room temperature then substrate and Acetyl coenzyme A solution were added to the plate. After addition, the plate was sealed with adhesive seals and incubated for 120 minutes at room temperature.
After 120 minutes of incubation, […] of AlphaLISA anti-acetyl-Lysine acceptor beads (Perkin Elmer, Catalog #AL143C) were added to the plate and it was incubated for 60 minutes at room temperature. Then […] of Alpha Streptavidin donor beads (Perkin Elmer, Catalog #6760002S) were added to the plate which was further incubated for 60 minutes at room temperature. After incubation, the alpha signal was recorded by using Perkin Elmer Envision multi-mode reader. Percent inhibition of enzyme activity by test compounds were determined relative to vehicle control.

Sequence of Recombinant KAT6A/MOZ (488-778) protein (Q92794 488-778): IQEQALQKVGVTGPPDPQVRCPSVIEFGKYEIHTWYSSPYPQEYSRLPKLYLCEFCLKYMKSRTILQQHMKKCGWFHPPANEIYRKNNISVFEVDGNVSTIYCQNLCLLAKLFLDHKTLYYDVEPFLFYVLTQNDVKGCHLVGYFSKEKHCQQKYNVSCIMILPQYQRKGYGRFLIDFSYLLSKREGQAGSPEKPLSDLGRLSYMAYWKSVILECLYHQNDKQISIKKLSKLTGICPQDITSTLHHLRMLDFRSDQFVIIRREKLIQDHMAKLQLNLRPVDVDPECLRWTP

## CC#CC(=O)NCc1ccc(Oc2cc(OC)c3c(NS(=O)(=O)c4cc(CC)ccc4OC)noc3c2)nc1 [Syn. Ex. 57, N-((6-((3-((5-ethyl-2-methoxyphenyl)sulfonamido)-4-methoxybenzo[d]isoxazol-6-yl)oxy)pyridin-3-yl)methyl)but-2-ynamide]
  inhibition at 1 µM: 70%
  inhibition at 10 µM: 100%

## CC#CC(=O)NCc1cnn(Cc2cc(OC)c3c(NS(=O)(=O)c4cc(OC)ccc4OC)noc3c2)c1 [Syn. Ex. 58, N-((1-((3-((2,5-dimethoxyphenyl)sulfonamido)-4-methoxybenzo[d]isoxazol-6-yl)methyl)-1H-pyrazol-4-yl)methyl)but-2-ynamide]
  inhibition at 1 µM: 91%
  inhibition at 10 µM: 97%

## C=C(F)C(=O)NCc1cnn(Cc2cc(OC)c3c(NS(=O)(=O)c4cc(C(C)C)ccc4OC)noc3c2)c1 [Syn. Ex. 59, 2-fluoro-N-((1-((3-((5-isopropyl-2-methoxyphenyl)sulfonamido)-4-methoxybenzo[d]isoxazol-6-yl)methyl)-1H-pyrazol-4-yl)methyl)acrylamide]
  inhibition at 1 µM: 100%
  inhibition at 10 µM: 100%

## C=C(F)C(=O)NCc1cnn(Cc2cc(OC)c3c(NS(=O)(=O)c4ccc(OC)cc4OC)noc3c2)c1 [Syn. Ex. 60, N-((1-((3-((2,4-dimethoxyphenyl)sulfonamido)-4-methoxybenzo[d]isoxazol-6-yl)methyl)-1H-pyrazol-4-yl)methyl)-2-fluoroacrylamide]
  inhibition at 1 µM: 93%
  inhibition at 10 µM: 100%

## C#CC(=O)NCc1ccc(Oc2cc(OC)c3c(NS(=O)(=O)c4cc(CC)ccc4OC)noc3c2)nc1 [Syn. Ex. 61, N-((6-((3-((5-ethyl-2-methoxyphenyl)sulfonamido)-4-methoxybenzo[d]isoxazol-6-yl)oxy)pyridin-3-yl)methyl)propiolamide]
  inhibition at 1 µM: 60%
  inhibition at 10 µM: 100%

## CCc1ccc(OCC(=O)O)c(S(=O)(=O)Nc2noc3cc(Cn4cc(CNC(=O)OC)cn4)cc(OC)c23)c1 [Syn. Ex. 62, 2-(4-ethyl-2-(N-(4-methoxy-6-((4-(((methoxycarbonyl)amino)methyl)-1H-pyrazol-1-yl)methyl)benzo[d]isoxazol-3-yl)sulfamoyl)phenoxy)acetic acid]
  inhibition at 1 µM: 100%
  inhibition at 10 µM: 100%

## CCc1ccc(OC)c(S(=O)(=O)Nc2noc3cc(Cn4cc(CNC(=O)OC)cn4)cc(OC(F)F)c23)c1 [Syn. Ex. 63, methyl ((1-((4-(difluoromethoxy)-3-((5-ethyl-2-methoxyphenyl)sulfonamido)benzo[d]isoxazol-6-yl)methyl)-1H-pyrazol 4yl)methyl)carbamate]
  inhibition at 1 µM: 95%
  inhibition at 10 µM: 96%

## CCc1ccc(OCCO)c(S(=O)(=O)Nc2noc3cc(Cn4cc(CNC(=O)OC)cn4)cc(OC)c23)c1 [Syn. Ex. 64, methyl ((1-((3-((5-ethyl-2-(2-hydroxyethoxy)phenyl)sulfonamido)-4-methoxybenzo[d]isoxazol-6-yl)methyl)-1H-pyrazol-4-yl)methyl)carbamate]
  inhibition at 1 µM: 94%
  inhibition at 10 µM: 100%

## C#CC(=O)NCc1cnn(Cc2cc(OC)c3c(NS(=O)(=O)c4cc(CC)ccc4OCCO)noc3c2)c1 [Syn. Ex. 65, N-((1-((3-((5-ethyl-2-(2-hydroxyethoxy)phenyl)sulfonamido)-4-methoxybenzo[d]isoxazol-6-yl)methyl)-1H-pyrazol-4-yl)methyl)propiolamide]
  inhibition at 1 µM: 100%
  inhibition at 10 µM: 100%

## CCc1ccc(OCC(=O)N2CCOCC2)c(S(=O)(=O)Nc2noc3cc(Cn4cc(CNC(=O)OC)cn4)cc(OC)c23)c1 [Syn. Ex. 66, methyl ((1-((3-((5-ethyl-2-(2-morpholino-2-oxoethoxy)phenyl)sulfonamido)-4-methoxybenzo[d]isoxazol-6-yl)methyl)-1H-pyrazol-4-yl)methyl)carbamate]
  inhibition at 1 µM: 93%
  inhibition at 10 µM: 100%

## C=C(F)C(=O)NCc1cnn(Cc2cc(OC)c3c(NS(=O)(=O)c4cc(CC)ccc4OCC(=O)O)noc3c2)c1 [Syn. Ex. 67, 2-(4-ethyl-2-(N-(6-((4-((2-fluoroacrylamido)methyl)-1H-pyrazol-1-yl)methyl)-4-methoxybenzo[d]isoxazol-3-yl)sulfamoyl)phenoxy)acetic acid]
  inhibition at 1 µM: 100%
  inhibition at 10 µM: 100%

## C=C(F)C(=O)NCc1cnn(Cc2cc(OC)c3c(NS(=O)(=O)c4cc(CC)ccc4OCC(=O)N4CCOCC4)noc3c2)c1 [Syn. Ex. 68, N-((1-((3-((5-ethyl-2-(2-morpholino-2-oxoethoxy)phenyl)sulfonamido)-4-methoxybenzo[d]isoxazol-6-yl)methyl)-1H-pyrazol-4-yl)methyl)-2-fluoroacrylamide]
  inhibition at 1 µM: 96%
  inhibition at 10 µM: 100%

## C#CC(=O)NCc1cnn(Cc2cc(OC)c3c(NS(=O)(=O)c4cc(CC)ccc4OCC#N)noc3c2)c1 [Syn. Ex. 69, N-((1-((3-((2-(cyanomethoxy)-5-ethylphenyl)sulfonamido)-4-methoxybenzo[d]isoxazol-6-yl)methyl)-1H-pyrazol-4-yl)methyl)propiolamide]
  inhibition at 1 µM: 96%
  inhibition at 10 µM: 99%

## C#CC(=O)NCc1cnn(Cc2cc(OC)c3c(NS(=O)(=O)c4cc(CC)ccc4OCc4nn[nH]n4)noc3c2)c1 [Syn. Ex. 70, N-((1-((3-((2-((2H-tetrazol-5-yl)methoxy)-5-ethylphenyl)sulfonamido)-4-methoxybenzo[d]isoxazol-6-yl)methyl)-1H-pyrazol-4-yl)methyl)propiolamide]
  inhibition at 1 µM: 100%
  inhibition at 10 µM: 100%

## CCc1ccc(OCc2nn[nH]n2)c(S(=O)(=O)Nc2noc3cc(Cn4cc(CNC(=O)OC)cn4)cc(OC)c23)c1 [Syn. Ex. 71, methyl ((1-((3-((2-((2H-tetrazol-5-yl)methoxy)-5-ethylphenyl)sulfonamido)-4-methoxybenzo[d]isoxazol-6-yl)methyl)-1H-pyrazol-4-yl)methyl)carbamate]
  inhibition at 1 µM: 100%
  inhibition at 10 µM: 100%

## C=C(F)C(=O)NCc1cnn(Cc2cc(OC)c3c(NS(=O)(=O)c4cc(CC)ccc4OCc4nn[nH]n4)noc3c2)c1 [Syn. Ex. 72, N-((1-((3-((2-((2H-tetrazol-5-yl)methoxy)-5-ethylphenyl)sulfonamido)-4-methoxybenzo[d]isoxazol-6-yl)methyl)-1H-pyrazol-4-yl)methyl)-2-fluoroacrylamide]
  inhibition at 1 µM: 100%
  inhibition at 10 µM: 100%

## C=C(F)C(=O)NCc1cnn(Cc2cc(OC)c3c(NS(=O)(=O)c4cc(CC)ccc4OCc4ncon4)noc3c2)c1 [Syn. Ex. 73, N-((1-((3-((2-((1,2,4-oxadiazol-3-yl)methoxy)-5-ethylphenyl)sulfonamido)-4-methoxybenzo[d]isoxazol-6-yl)methyl)-1H-pyrazol-4-yl)methyl)-2-fluoroacrylamide]
  inhibition at 1 µM: 100%
  inhibition at 10 µM: 100%

## CCc1ccc(OCc2ncon2)c(S(=O)(=O)Nc2noc3cc(Cn4cc(CNC(=O)OC)cn4)cc(OC)c23)c1 [Syn. Ex. 74, methyl ((1-((3-((2-((1,2,4-oxadiazol-3-yl)methoxy)-5-ethylphenyl)sulfonamido)-4-methoxybenzo[d]isoxazol-6-yl)methyl)-1H-pyrazol-4-yl)methyl)carbamate]
  inhibition at 1 µM: 100%
  inhibition at 10 µM: 100%

## CCc1ccc(OCCN)c(S(=O)(=O)Nc2noc3cc(Cn4cc(CNC(=O)OC)cn4)cc(OC)c23)c1 [Syn. Ex. 75, methyl ((1-((3-((2-(2-aminoethoxy)-5-ethylphenyl)sulfonamido)-4-methoxybenzo[d]isoxazol-6-yl)methyl)-1H-pyrazol-4-yl)methyl)carbamate]
  inhibition at 1 µM: 59%
  inhibition at 10 µM: 92%

## C=C(F)C(=O)NCc1cnn(Cc2cc(OC)c3c(NS(=O)(=O)c4cc(CC)ccc4OCCN)noc3c2)c1 [Syn. Ex. 76, N-((1-((3-((2-(2-aminoethoxy)-5-ethylphenyl)sulfonamido)-4-methoxybenzo[d]isoxazol-6-yl)methyl)-1H-pyrazol-4-yl)methyl)-2-fluoroacrylamide]
  inhibition at 1 µM: 74%
  inhibition at 10 µM: 96%

## CCc1ccc(OCCN2CCOC2=O)c(S(=O)(=O)Nc2noc3cc(Cn4cc(CNC(=O)OC)cn4)cc(OC)c23)c1 [Syn. Ex. 77, methyl ((1-((3-((5-ethyl-2-(2-(2-oxooxazolidin-3-yl)ethoxy)phenyl)sulfonamido)-4-methoxybenzo[d]isoxazol-6-yl)methyl)-1H-pyrazol-4-yl)methyl)carbamate]
  inhibition at 1 µM: 96%
  inhibition at 10 µM: 98%

## C=C(F)C(=O)NCc1cnn(Cc2cc(OC)c3c(NS(=O)(=O)c4cc(CC)ccc4OCCN4CCOC4=O)noc3c2)c1 [Syn. Ex. 78, N-((1-((3-((5-ethyl-2-(2-(2-oxooxazolidin-3-yl)ethoxy)phenyl)sulfonamido)-4-methoxybenzo[d]isoxazol-6-yl)methyl)-1H-pyrazol-4-yl)methyl)-2-fluoroacrylamide]
  inhibition at 1 µM: 100%
  inhibition at 10 µM: 100%
